This passage reports Ki results from patent US8680275B2, “Fused heterocyclic compounds as orexin receptor modulators” (Janssen Pharmaceutica NV, priority 2009, dated 2014).

Assay [1] has as its target human orexin 1 receptor (Homo sapiens (Human), UniProt O43613). The assay can be described thus: Human orexin 1 receptor radioligand binding ([3H]-SB674042 competition). The settings on record: CHO cells stably expressing human orexin 1 receptor; [3H]-SB674042 4 nM final; read-out: OR-1 Ki. The gist of the method:
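CHO cells stably expressing human OX1R incubated 60 min at room temperature with [3H]-SB674042 and compounds (7 concentrations, 0.1 nM–10 μM; DMSO ≤0.1%) in PBS. Nonspecific binding defined with 10 μM of a reference urea antagonist; bound radioactivity measured by filtration and scintillation counting.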

Assay [2] concerns the target human orexin-2 receptor (Homo sapiens (Human), UniProt O43614). The assay can be described thus: Human orexin 2 receptor radioligand binding ([3H]-EMPA competition). The settings on record: read-out: OR-2 Ki. The method in brief:
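Competition binding on HEK293 cells stably expressing human orexin-2 receptor, using 5 nM final [3H]-EMPA in PBS, compounds 0.1 nM to 10 μM (DMSO ≤0.1%). 60 min at room temperature, then filtration and scintillation counting; nonspecific binding defined with 10 μM of a reference antagonist.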

Where [3] appears, read: HEK293 cells stably expressing human orexin-2 receptor, [3H]-EMPA 5 nM final.

Read-outs that look alike come from different tables or passages of the source.

human orexin-2 receptor, sequence (O43614 whole entry): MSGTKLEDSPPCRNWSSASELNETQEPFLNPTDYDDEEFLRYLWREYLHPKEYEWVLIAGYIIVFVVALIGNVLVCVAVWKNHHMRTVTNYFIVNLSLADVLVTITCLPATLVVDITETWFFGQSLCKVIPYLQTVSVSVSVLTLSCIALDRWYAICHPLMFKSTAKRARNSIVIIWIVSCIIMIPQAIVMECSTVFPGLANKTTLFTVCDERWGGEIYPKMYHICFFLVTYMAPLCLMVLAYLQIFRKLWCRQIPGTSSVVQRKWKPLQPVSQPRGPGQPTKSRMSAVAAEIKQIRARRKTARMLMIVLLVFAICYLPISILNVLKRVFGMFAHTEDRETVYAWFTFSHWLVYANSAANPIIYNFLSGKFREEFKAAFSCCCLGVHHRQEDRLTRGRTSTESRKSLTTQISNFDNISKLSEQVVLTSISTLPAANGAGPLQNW
human orexin 1 receptor, sequence (O43613 whole entry): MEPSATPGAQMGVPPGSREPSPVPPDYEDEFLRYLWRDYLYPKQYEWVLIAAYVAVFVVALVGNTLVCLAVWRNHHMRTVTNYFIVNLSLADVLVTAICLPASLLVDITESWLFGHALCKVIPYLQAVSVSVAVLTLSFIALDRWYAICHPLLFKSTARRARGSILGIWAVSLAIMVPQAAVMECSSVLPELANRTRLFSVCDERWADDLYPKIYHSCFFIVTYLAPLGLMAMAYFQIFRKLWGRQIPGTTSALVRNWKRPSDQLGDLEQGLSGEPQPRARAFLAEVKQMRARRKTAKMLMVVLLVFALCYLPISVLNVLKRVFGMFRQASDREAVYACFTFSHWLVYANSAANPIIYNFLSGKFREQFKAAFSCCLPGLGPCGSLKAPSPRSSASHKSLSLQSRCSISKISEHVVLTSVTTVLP

For `O=C(c1cccc(F)c1-n1nccn1)N1CC[C@H]2CN(c3cnc4ccccc4n3)[C@H]2C1` [Example 116, 2-[(1R,6S)-3-{[3-Fluoro-2-(2H-1,2,3-triazol-2-yl)phenyl]carbonyl}-3,8-diazabicyclo[4.2.0]oct-8-yl]quinoxaline], the Ki in assay [1] was determined as 23 nM; in assay [2] (setting [3]), 28 nM.
Taken in the same sequence, the figures for `O=C(c1c(F)cccc1-n1nccn1)N1CC[C@H]2CN(c3cnc4ccccc4n3)[C@H]2C1` [Example 117, 2-[(1R,6S)-3-{[2-Fluoro-6-(2H-1,2,3-triazol-2-yl)phenyl]carbonyl}-3,8-diazabicyclo[4.2.0]oct-8-yl]quinoxaline] were 23 nM and 18 nM.
Regarding `O=C(c1cc(F)ccc1-n1nccn1)N1CC[C@H]2CN(c3cnc4ccccc4n3)[C@H]2C1` [Example 118, 2-[(1R,6S)-3-{[5-Fluoro-2-(2H-1,2,3-triazol-2-yl)phenyl]carbonyl}-3,8-diazabicyclo[4.2.0]oct-8-yl]quinoxaline], the Ki stood at 33 nM in assay [1] and 40 nM in assay [2] (setting [3]).
`O=C(c1ccccc1-n1nccn1)N1CC[C@H]2CN(c3nc4cc(Cl)ccc4o3)[C@H]2C1` [Example 119, 5-Chloro-2-[(1R,6S)-3-{[2-(2H-1,2,3-triazol-2-yl)phenyl]carbonyl}-3,8-diazabicyclo[4.2.0]oct-8-yl]-1,3-benzoxazole]: the Ki came to 32 nM in assay [1] and 17 nM in assay [2] (setting [3]).
Take `O=C(c1c(F)cccc1-n1nccn1)N1CC[C@H]2CN(c3nc4cc(Cl)ccc4o3)[C@H]2C1` [Example 120, 5-Chloro-2-[(1R,6S)-3-{[2-fluoro-6-(2H-1,2,3-triazol-2-yl)phenyl]carbonyl}-3,8-diazabicyclo[4.2.0]oct-8-yl]-1,3-benzoxazole]: the Ki in assay [1] came out at 43 nM; in assay [2] (setting [3]), 26 nM.
On to `O=C(c1cc(F)ccc1-n1nccn1)N1CC[C@H]2CN(c3nc4cc(Cl)ccc4o3)[C@H]2C1` [Example 121, 5-Chloro-2-[(1R,6S)-3-{[5-fluoro-2-(2H-1,2,3-triazol-2-yl)phenyl]carbonyl}-3,8-diazabicyclo[4.2.0]oct-8-yl]-1,3-benzoxazole], for which the Ki turned out to be 91 nM in assay [1] and 75 nM in assay [2].
For the compound `O=C(c1ccc(F)cc1-n1nccn1)N1CC[C@H]2CN(c3nc4cc(Cl)ccc4o3)[C@H]2C1` [Example 122, 5-Chloro-2-[(1R,6S)-3-{[4-fluoro-2-(2H-1,2,3-triazol-2-yl)phenyl]carbonyl}-3,8-diazabicyclo[4.2.0]oct-8-yl]-1,3-benzoxazole], the inhibition constant (Ki) in assay [1] was determined as 128 nM; in assay [2] (setting [3]), 59 nM.
Consider `O=C(c1cccc(F)c1-n1nccn1)N1CC[C@H]2CN(c3nc4cc(Cl)ccc4o3)[C@H]2C1` [Example 123, 5-Chloro-2-[(1R,6S)-3-{[3-fluoro-2-(2H-1,2,3-triazol-2-yl)phenyl]carbonyl}-3,8-diazabicyclo[4.2.0]oct-8-yl]-1,3-benzoxazole], for which the Ki was determined as 95 nM in assay [1] and 45 nM in assay [2] (setting [3]).
The matching figures for `Cc1cccc(N2C[C@@H]3CCN(C(=O)c4c(F)cccc4-n4nccn4)C[C@@H]32)n1` [Example 124, (1R,6S)-3-{[2-Fluoro-6-(2H-1,2,3-triazol-2-yl)phenyl]carbonyl}-8-(6-methylpyridin-2-yl)-3,8-diazabicyclo[4.2.0]octane]: 4150 nM and 92 nM.
Taken in the same sequence, the figures for `Cc1cccc(N2C[C@@H]3CCN(C(=O)c4ccccc4-n4nccn4)C[C@@H]32)n1` [Example 125, (1R,6S)-8-(6-Methylpyridin-2-yl)-3-{[2-(2H-1,2,3-triazol-2-yl)phenyl]carbonyl}-3,8-diazabicyclo[4.2.0]octane] were 3300 nM and 73 nM.
For `Cc1cccc(N2C[C@@H]3CCN(C(=O)c4cc(F)ccc4-n4nccn4)C[C@@H]32)n1` [Example 126, (1R,6S)-3-{[5-Fluoro-2-(2H-1,2,3-triazol-2-yl)phenyl]carbonyl}-8-(6-methylpyridin-2-yl)-3,8-diazabicyclo[4.2.0]octane], the Ki in assay [1] amounted to 5470 nM; in assay [2] (setting [3]) it was 149 nM.
As to `Cc1ccnc(N2C[C@@H]3CCN(C(=O)c4cc(F)ccc4-n4nccn4)C[C@@H]32)c1` [Example 127, (1R,6S)-3-{[5-Fluoro-2-(2H-1,2,3-triazol-2-yl)phenyl]carbonyl}-8-(4-methylpyridin-2-yl)-3,8-diazabicyclo[4.2.0]octane], the Ki in assay [1] came out at 10000 nM; in assay [2] (setting [3]) it was 210 nM.
Turning to `Cc1cc(C)nc(N2C[C@@H]3CCN(C(=O)c4cc(F)ccc4-n4nccn4)C[C@@H]32)c1` [Example 128, (1R,6S)-8-(4,6-Dimethylpyridin-2-yl)-3-{[5-fluoro-2-(2H-1,2,3-triazol-2-yl)phenyl]carbonyl}-3,8-diazabicyclo[4.2.0]octane], the figures for the Ki in assay [1] and in assay [2] (setting [3]) were 1010 nM and 26 nM, respectively.
Take `O=C(c1cc(F)ccc1-n1nccn1)N1CC[C@H]2CN(c3cccc(C(F)(F)F)n3)[C@H]2C1` [Example 129, (1R,6S)-3-{[5-Fluoro-2-(2H-1,2,3-triazol-2-yl)phenyl]carbonyl}-8-[6-(trifluoromethyl)pyridin-2-yl]-3,8-diazabicyclo[4.2.0]octane]: the Ki in assay [1] amounted to 265 nM; in assay [2] (setting [3]), 36 nM.
Taken in the same sequence, the figures for `O=C(c1cc(F)ccc1-n1nccn1)N1CC[C@H]2CN(c3cc(C(F)(F)F)ccn3)[C@H]2C1` [Example 130, (1R,6S)-3-{[5-Fluoro-2-(2H-1,2,3-triazol-2-yl)phenyl]carbonyl}-8-[4-(trifluoromethyl)pyridin-2-yl]-3,8-diazabicyclo[4.2.0]octane] were 1720 nM and 31 nM.
Turning to `Cc1ccc(N2C[C@@H]3CCN(C(=O)c4cc(F)ccc4-n4nccn4)C[C@@H]32)nc1` [Example 131, (1R,6S)-3-{[5-Fluoro-2-(2H-1,2,3-triazol-2-yl)phenyl]carbonyl}-8-(5-methylpyridin-2-yl)-3,8-diazabicyclo[4.2.0]octane], the Ki stood at 1600 nM in assay [1] and 250 nM in assay [2] (setting [3]).
As to `Cc1cc(C)nc(N2C[C@@H]3CCN(C(=O)c4cccc(C)c4-n4cccn4)C[C@@H]32)n1` [Example 133, (1R,6S)-8-(4,6-Dimethylpyrimidin-2-yl)-3-{[3-methyl-2-(1H-pyrazol-1-yl)phenyl]carbonyl}-3,8-diazabicyclo[4.2.0]octane], the Ki in assay [1] stood at 550 nM; in assay [2] (setting [3]), 36 nM.
As to `COc1ccc(-n2nccn2)c(C(=O)N2CC[C@H]3CN(c4nc(C)cc(C)n4)[C@H]3C2)c1` [Example 134, (1R,6S)-8-(4,6-Dimethylpyrimidin-2-yl)-3-{[5-methoxy-2-(2H-1,2,3-triazol-2-yl)phenyl]carbonyl}-3,8-diazabicyclo[4.2.0]octane], the Ki in assay [1] came out at 277 nM; in assay [2] (setting [3]), 16 nM.
Take `Cc1cc(C)nc(N2C[C@@H]3CCN(C(=O)c4cccc(C)c4-n4nccn4)C[C@@H]32)n1` [Example 135, (1R,6S)-8-(4,6-Dimethylpyrimidin-2-yl)-3-{[3-methyl-2-(2H-1,2,3-triazol-2-yl)phenyl]carbonyl}-3,8-diazabicyclo[4.2.0]octane]: the Ki was determined as 135 nM in assay [1] and 15 nM in assay [2] (setting [3]).
For the compound `Cc1cc(C)nc(N2C[C@@H]3CCN(C(=O)c4nccnc4-c4ccccc4)C[C@@H]32)n1` [Example 137, (1R,6S)-8-(4,6-Dimethylpyrimidin-2-yl)-3-[(3-phenylpyrazin-2-yl)carbonyl]-3,8-diazabicyclo[4.2.0]octane], the Ki was determined as 10000 nM in assay [1] and 275 nM in assay [2] (setting [3]).
Regarding `Cc1cc(C)nc(N2C[C@@H]3CCN(C(=O)c4cccc(C)c4-n4ccnn4)C[C@@H]32)n1` [Example 138, (1R,6S)-8-(4,6-Dimethylpyrimidin-2-yl)-3-{[3-methyl-2-(1H-1,2,3-triazol-1-yl)phenyl]carbonyl}-3,8-diazabicyclo[4.2.0]octane], the Ki amounted to 1650 nM in assay [1] and 70 nM in assay [2] (setting [3]).
Take `COc1ccc(-n2nccn2)c(C(=O)N2CC[C@H]3CN(c4cc(C)ccn4)[C@H]3C2)c1` [Example 139, (1R,6S)-3-{[5-Methoxy-2-(2H-1,2,3-triazol-2-yl)phenyl]carbonyl}-8-(4-methylpyridin-2-yl)-3,8-diazabicyclo[4.2.0]octane]: the Ki is 6500 nM in assay [1] and 208 nM in assay [2] (setting [3]).
Turning to `COc1ccc(-n2nccn2)c(C(=O)N2CC[C@H]3CN(c4cc(C(F)(F)F)ccn4)[C@H]3C2)c1` [Example 140, (1R,6S)-3-{[5-Methoxy-2-(2H-1,2,3-triazol-2-yl)phenyl]carbonyl}-8-[4-(trifluoromethyl)pyridin-2-yl]-3,8-diazabicyclo[4.2.0]octane], the Ki came out at 1070 nM in assay [1] and 70 nM in assay [2] (setting [3]).
`Cc1cccc(C(=O)N2CC[C@H]3CN(c4cc(N(C)C)ccn4)[C@H]3C2)c1-n1nccn1` [Example 141, N,N-Dimethyl-2-[(1R,6S)-3-{[3-methyl-2-(2H-1,2,3-triazol-2-yl)phenyl]carbonyl}-3,8-diazabicyclo[4.2.0]oct-8-yl]pyridin-4-amine]: the figures for the inhibition constant (Ki) in assay [1] and in assay [2] (setting [3]) were 9000 nM and 734 nM, respectively.
As to `COc1ccc(C(=O)N2CC[C@H]3CN(c4cc(N(C)C)ccn4)[C@H]3C2)c(-n2nccn2)c1` [Example 142, 2-[(1R,6S)-3-{[4-Methoxy-2-(2H-1,2,3-triazol-2-yl)phenyl]carbonyl}-3,8-diazabicyclo[4.2.0]oct-8-yl]-N,N-dimethylpyridin-4-amine], the Ki came out at 10000 nM in assay [1] and 9000 nM in assay [2] (setting [3]).
